Values quoted from earlier work in US20080227813A1, “Pharmaceutical compositions and methods for treating diseases associated with neurodegeneration” (priority 2006, published 2008).

Test system: patients suffering from ALS
Conditions: riluzole alone, previous studies; cited from earlier work

Compound: Nc1nc2ccc(OC(F)(F)F)cc2s1 [riluzole, Riluzole]
- effect on VC: failed to demonstrate any effect
